Reference: ChEMBL document CHEMBL1129981 (J Med Chem, 1997)

Columns and labels:
[1] = target: Sodium-dependent serotonin transporter (Rattus norvegicus, UniProt P31652); assay: Inhibition of uptake of [3H]5-HT in synaptosomes from rat cortex; type: functional, subcellular, Brain
[2] = target: T1, Adrenergic receptor alpha-2 (Rattus norvegicus, UniProt P22086+P19328+P22909); assay: Ability to displace [3H]rauwolscine from Alpha-2 adrenergic receptor in rat cortical membranes; type: cell membranes
T1 sequence (P22086 whole entry): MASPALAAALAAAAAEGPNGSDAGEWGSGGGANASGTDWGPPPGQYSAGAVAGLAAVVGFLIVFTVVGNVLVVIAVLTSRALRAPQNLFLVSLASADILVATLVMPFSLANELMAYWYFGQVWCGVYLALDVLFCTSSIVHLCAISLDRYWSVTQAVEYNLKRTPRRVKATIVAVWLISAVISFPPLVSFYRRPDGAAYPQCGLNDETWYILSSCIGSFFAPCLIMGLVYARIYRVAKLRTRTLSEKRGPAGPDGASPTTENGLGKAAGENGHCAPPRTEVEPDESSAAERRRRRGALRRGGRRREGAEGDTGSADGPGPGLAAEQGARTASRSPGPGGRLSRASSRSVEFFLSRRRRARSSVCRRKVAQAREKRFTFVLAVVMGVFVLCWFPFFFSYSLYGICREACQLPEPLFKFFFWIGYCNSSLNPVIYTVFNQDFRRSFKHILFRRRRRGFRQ
T1 sequence (P19328 whole entry): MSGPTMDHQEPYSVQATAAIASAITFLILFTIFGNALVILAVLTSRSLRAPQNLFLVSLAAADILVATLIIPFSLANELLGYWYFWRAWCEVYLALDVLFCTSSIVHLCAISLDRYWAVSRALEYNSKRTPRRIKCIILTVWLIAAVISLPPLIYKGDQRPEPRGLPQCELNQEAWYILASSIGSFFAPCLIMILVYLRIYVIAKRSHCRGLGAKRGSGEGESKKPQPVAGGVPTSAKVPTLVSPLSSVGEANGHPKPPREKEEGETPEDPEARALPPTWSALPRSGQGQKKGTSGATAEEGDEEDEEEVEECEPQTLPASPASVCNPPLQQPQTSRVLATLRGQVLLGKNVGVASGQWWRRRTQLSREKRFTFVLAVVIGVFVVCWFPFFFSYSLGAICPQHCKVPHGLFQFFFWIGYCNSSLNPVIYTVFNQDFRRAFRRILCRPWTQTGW
T1 sequence (P22909 whole entry): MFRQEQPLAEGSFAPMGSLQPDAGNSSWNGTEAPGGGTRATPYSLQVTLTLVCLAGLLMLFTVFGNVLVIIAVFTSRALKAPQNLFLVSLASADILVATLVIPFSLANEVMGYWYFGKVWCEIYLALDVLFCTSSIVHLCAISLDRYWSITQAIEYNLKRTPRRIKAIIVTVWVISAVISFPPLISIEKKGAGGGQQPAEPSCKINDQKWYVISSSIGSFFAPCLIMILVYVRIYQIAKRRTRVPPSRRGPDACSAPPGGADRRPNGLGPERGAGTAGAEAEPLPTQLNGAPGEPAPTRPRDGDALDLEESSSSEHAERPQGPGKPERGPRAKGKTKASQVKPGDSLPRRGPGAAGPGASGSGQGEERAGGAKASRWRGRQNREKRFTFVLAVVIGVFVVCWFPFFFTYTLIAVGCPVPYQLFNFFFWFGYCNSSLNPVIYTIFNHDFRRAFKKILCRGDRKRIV

Chain of Sodium-dependent serotonin transporter (P31652 whole entry): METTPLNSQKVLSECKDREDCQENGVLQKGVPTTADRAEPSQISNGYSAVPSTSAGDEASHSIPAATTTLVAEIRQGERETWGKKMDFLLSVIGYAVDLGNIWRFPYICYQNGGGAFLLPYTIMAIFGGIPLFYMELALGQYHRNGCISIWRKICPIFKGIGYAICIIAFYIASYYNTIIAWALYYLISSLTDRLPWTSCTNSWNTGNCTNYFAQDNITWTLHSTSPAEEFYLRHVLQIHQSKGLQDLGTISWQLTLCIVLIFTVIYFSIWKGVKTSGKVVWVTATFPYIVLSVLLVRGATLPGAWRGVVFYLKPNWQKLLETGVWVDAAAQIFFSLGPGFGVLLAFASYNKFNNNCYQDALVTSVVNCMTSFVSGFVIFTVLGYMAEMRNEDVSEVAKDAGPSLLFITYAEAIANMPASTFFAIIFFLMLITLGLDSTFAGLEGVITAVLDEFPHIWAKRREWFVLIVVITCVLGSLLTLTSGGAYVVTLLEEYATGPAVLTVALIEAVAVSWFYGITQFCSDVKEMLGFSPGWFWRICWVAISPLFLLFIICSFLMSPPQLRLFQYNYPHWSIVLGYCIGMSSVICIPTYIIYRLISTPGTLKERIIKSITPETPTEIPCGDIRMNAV

Compound | IC50 [1] [nM] | Ki [2] [nM]
COc1ccc2c(c1)C(CN(C)CCc1ccc3c(c1)OCO3)CCC2 (centres undefined) | 1420 | 57.5
CN(CCc1ccc2c(c1)OCO2)C[C@@H]1CCCc2c1ccc1c2OCC1 | 26.7 | 5.57
COc1cccc2c1CCC[C@H]2CN(C)CCc1ccc2c(c1)CCS2(=O)=O | 33.7 | 4.67
COc1cccc2c1C(CN(C)CCc1ccc3c(c1)OCO3)CCC2 (centres undefined) | 1430 | 2.88
COc1cccc2c1CCC[C@H]2CN(C)CCc1ccc2occc2c1 | 17.6 | 2.78
COc1cccc2c1CCC[C@H]2CN(C)CCc1ccc2nc(O)oc2c1 | 19.4 | 4.51
COc1cccc2c1CCC[C@H]2CN(C)CCc1ccc2c(c1)C=CS2(=O)=O | 51 | 4.82
COc1cccc2c1CCC[C@H]2CN(C)CCc1ccc2c(c1)CCN2S(C)(=O)=O | 35 | 4.62
CCN(CCc1ccc2c(c1)OCO2)C[C@@H]1CCCc2c(OC)cccc21 | 158 | 5.73
COc1cccc2c1CCC[C@H]2CN(C)CCc1ccc2nc(C)sc2c1 | 86.7 | 2.12
COc1cccc2c1CCC[C@H]2CN(C)CCc1ccc2c(c1)CCS2 | 24.3 | 2.65
COc1cccc2c1CCC[C@H]2CN(C)CCc1ccc2nc(C)oc2c1 | 42.8 | 9.27
COc1cccc2c1CCC[C@H]2CN(C)CCc1ccc2c(c1)CCC2 | 20.5 | 8.99
COc1cccc2c1CCC[C@H]2CN(C)CCc1ccc2c(c1)CN(S(C)(=O)=O)C2 | 5.81 | 5.33
COc1cccc2c1CCC[C@H]2CN(C)CCc1ccc2ncccc2c1 | 46.7 | 3.91
COc1cccc2c1CCC[C@H]2CN(C)CCc1ccc2ncoc2c1 | 5.25 | 1.22
CN(CCc1ccc2c(c1)OCO2)CC1CCCc2ccccc21 (centres undefined) | 1090 | 8.19
COc1cccc2c1CCC[C@H]2CN(C)CCc1ccc2ccncc2c1 | 53.9 | 6.07
COc1ccc2c(c1)CCCC2CN(C)CCc1ccc2c(c1)OCO2 (centres undefined) | 469 | 23.5
COc1cccc2c1CCC[C@H]2CN(C)CCc1ccc2c(c1)COC2 | 229 | 2.64
COc1cccc2c1CCC[C@@H]2CN(C)CCc1ccc2c(c1)OCO2 | 1310 | 88.6
COc1cccc2c1CCC[C@H]2CN(CCc1ccc2c(c1)OCO2)CC1CC1 |  | 54.3
COc1cccc2c1CCC[C@H]2CN(C)CCc1ccc2c(c1)N(S(C)(=O)=O)CC2 | 38.9 | 5.35
COc1cccc2c1CCC[C@H]2CN(C)CCc1ccc2oc(O)nc2c1 | 68.3 | 7.5
COc1cccc2c1CCC[C@H]2CN(C)CCc1ccc2c(c1)NCC2 | 79.1 | 11.7
COc1cccc2c1CCC[C@H]2CN(C)CCc1ccc2c(c1)OCC2 | 18.1 | 1.88

Compound | IC50 [1] [nM] | Ki [2] [nM]
COc1cccc2c1CCC[C@H]2CN(CCc1ccc2c(c1)OCO2)C1CC1 |  | 266
COc1cccc2c1CCC[C@H]2CN(C)CCc1ccc2ncsc2c1 | 8.94 | 2.73
COc1cccc2c1CCC[C@H]2CN(C)CCc1ccc2c(c1)CCN2 | 31.8 | 3.42
CN(CCc1ccc2c(c1)OCO2)CC1CCCc2c1ccc1c2OCO1 (centres undefined) | 60.3 | 11
COc1ccc2c(c1OC)CCC[C@H]2CN(C)CCc1ccc2c(c1)OCO2 | 757 | 15.5
COc1cccc2c1CCC[C@H]2CN(C)CCc1ccc2sccc2c1 | 52.8 | 17.9
COc1cccc2c1CCC[C@H]2CN(C)CCc1ccc2c(c1)CN(S(=O)(=O)C(F)(F)F)C2 | 59.8 | 142
COc1cccc2c1CCC[C@H]2CN(C)CCc1ccc2nc(Cl)sc2c1 | 38.2 | 5.45
COc1cccc2c1CCC[C@H]2CN(C)CCc1ccc2c(c1)CNC2 | 11.6 | 5.99
CN(CCc1ccc2c(c1)OCO2)C[C@@H]1CC[C@@H]2CCOc3cccc1c32 | 862 | 113
COc1cccc2c1CCC[C@H]2CN(C)CCc1ccc2c(c1)CCN2S(=O)(=O)C(F)(F)F | 132 | 158
COc1cccc2c1CCC[C@H]2CN(C)CCc1ccc2c(c1)OCO2 | 12.7 | 1.7
C#CCN(CCc1ccc2c(c1)OCO2)C[C@@H]1CCCc2c(OC)cccc21 |  | 184
COc1cccc2c1CCCC2CN(C)CCc1ccc2c(c1)OCO2 (centres undefined) | 20.6 | 6.71
CN(CCc1ccc2c(c1)OCO2)CC1CCCc2c(O)cccc21 (centres undefined) | 1240 | 7.54
CSc1cccc2c1CCCC2CN(C)CCc1ccc2c(c1)OCO2 (centres undefined) | 117 | 21
COc1cccc2c1CCC[C@H]2CN(C)CCc1ccc2c(c1)CC(=O)N2 | 22.2 | 4.91
COc1cccc2c1CCC[C@H]2CN(C)CCc1ccc2[nH]c(O)nc2c1 | 16.3 | 10.8
CCOc1cccc2c1CCC[C@H]2CN(C)CCc1ccc2c(c1)OCO2 | 198 | 1.86
COc1cccc2c1CCC[C@H]2CN(C)CCc1ccc2[nH]cnc2c1 | 11.3 | 5.21
COc1cccc2c1CCC[C@H]2CN(C)CCc1ccc2c(c1)CCO2 | 14.6 | 1.76
COc1cccc2c1CCC[C@H]2CN(C)CCc1ccc2nccnc2c1 | 44.4 | 1.81
COc1cccc2c1CCC[C@H]2CN(C)CCc1ccc2ocnc2c1 | 16.7 | 1.77
COc1cccc2c1CCC[C@H]2CN(C)CCc1ccc2cccnc2c1 | 18.1 | 6.79
COc1cccc2c1CCC[C@H]2CNCCc1ccc2c(c1)OCO2 | 414 | 88.2
